From patent US8710092B2, “Substituted indolo 4,3 FG quinolines useful for treating migraine” (Map Pharmaceuticals, Inc., priority 2009, dated 2014)
Like-named read-outs stand apart in the source and are kept apart here.

Columns and labels:
5-HT2c receptor [1] = molecular target: T1, 5-HT2c receptor (Homo sapiens, UniProt P28335); assay: FLIPR agonist assay at the 5-HT2c receptor (analogous to Example 2); format: cell-based; settings: for agonist activity at the 5-HT2c receptor: FLIPR
T1 sequence (P28335 33-458): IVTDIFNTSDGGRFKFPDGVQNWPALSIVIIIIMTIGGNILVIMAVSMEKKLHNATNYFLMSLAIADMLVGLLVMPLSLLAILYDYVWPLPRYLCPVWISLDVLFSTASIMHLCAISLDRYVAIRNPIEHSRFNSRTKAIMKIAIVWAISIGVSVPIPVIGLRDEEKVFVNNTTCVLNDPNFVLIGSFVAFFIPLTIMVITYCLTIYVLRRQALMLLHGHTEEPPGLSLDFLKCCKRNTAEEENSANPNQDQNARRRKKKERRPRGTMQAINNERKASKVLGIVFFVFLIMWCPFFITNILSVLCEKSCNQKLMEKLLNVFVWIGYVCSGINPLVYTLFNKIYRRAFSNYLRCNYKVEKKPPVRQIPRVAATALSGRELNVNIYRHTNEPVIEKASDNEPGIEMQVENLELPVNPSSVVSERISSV

5-HT2B receptor [2] = molecular target: T2, 5-HT2B receptor (Homo sapiens, UniProt P41595); assay: FLIPR assay, agonist selectivity at the 5-HT2B receptor; format: cell-based
T2 construct: Millipore, Inc. (GPCR Profiler Service Laboratory, St. Charles, Mo.)
Protocol: A FLIPR assay was conducted to monitor agonist selectivity for 1-methyl-dihydroergotamine against the 5-HT2B receptor. The assay was completed with an eight point, 4 fold serial dilution series starting with 10 μM concentration to obtain full dose response curve. Percentage activation values were determined for 1-methyl-dihydroergotamine on the 5-HT2B receptor. Agonist selectivity was determined upon initial addition of for 1-methyl-dihydroergotamine followed by a 5 minute incubation at 25° C. Following compound incubation, reference agonists were added at EC80. Agonist percentage activation determinations were obtained by assaying 1-methyl-dihydroergotamine and referencing the Emax control for the 5-HT2B receptor. The assay was performed by GPCR Profiler™ Service Laboratory, St. Charles, Mo., Millipore, Inc.

5-HT2c receptor [3] = molecular target: T1, 5-HT2c receptor; assay: FLIPR antagonist assay at the 5-HT2c receptor (analogous to Example 3); format: cell-based
5-HT2B receptor [4] = molecular target: T2, 5-HT2B receptor; assay: FLIPR assay, antagonist selectivity at the 5-HT2B receptor; format: cell-based; settings: FIG. 2
Protocol: A FLIPR assay was conducted to monitor antagonist selectivity for 1-methyl-dihydroergotamine against the 5-HT2B receptor. The assay was completed with an eight point, 4 fold serial dilution series starting with 10 μM concentration to obtain full dose response curve. Percentage inhibition values were determined for 1-methyl-dihydroergotamine on the 5-HT2B receptor. Antagonist percentage inhibition determinations were obtained by assaying 1-methyl-dihydroergotamine and referencing the Emax control for the 5-HT2B receptor. The assay above was performed by GPCR Profiler™ Service Laboratory, St. Charles, Mo., Millipore, Inc.

5-HT1D receptor = 5-HT1D receptor (Homo sapiens, UniProt P28221); assay: Membrane based GTPγS assay, agonist activity at 5-HT1D; format: biochemical; settings: 5-CT reference agonist, FIG. 6
5-HT7 receptor = 5-HT7 receptor (Homo sapiens, UniProt P34969); assay: cAMP HTRF assay, antagonist activity at 5-HT7 (analogous to Example 6); format: cell-based; settings: percent of control response to 300 nM serotonin, FIG. 4
Protocol: (§1) A cell based assay (cAMP modulation with HTRF detection) was conducted to monitor agonist activity of test compounds at the 5-HT1A receptor, summarized in FIG. 3. Test compounds were serially diluted to provide a wide concentration range sufficient to calculate EC50. The cAMP concentration was determined and results are expressed as a percent of the control response to 100 nM 8-OH-DPAT (control agonist).
The assay was performed analogously to the assay described in Example 6. Antagonist activity of test compounds at the 5-HT7 receptor, using serotonin as a control reference agonist, was measured. Test compounds were serially diluted to provide a wide concentration range sufficient to calculate IC50. The results are expressed as a percent of the control response to 300 nM serotonin.

5-HT1A receptor = molecular target: T3, 5-HT1A receptor (Homo sapiens, UniProt P08908); assay: Cell based assay (cAMP modulation with HTRF detection), agonist activity at 5-HT1A; settings: percent of control response to 100 nM 8-OH-DPAT, FIG. 3
T3 sequence (P08908 1-422): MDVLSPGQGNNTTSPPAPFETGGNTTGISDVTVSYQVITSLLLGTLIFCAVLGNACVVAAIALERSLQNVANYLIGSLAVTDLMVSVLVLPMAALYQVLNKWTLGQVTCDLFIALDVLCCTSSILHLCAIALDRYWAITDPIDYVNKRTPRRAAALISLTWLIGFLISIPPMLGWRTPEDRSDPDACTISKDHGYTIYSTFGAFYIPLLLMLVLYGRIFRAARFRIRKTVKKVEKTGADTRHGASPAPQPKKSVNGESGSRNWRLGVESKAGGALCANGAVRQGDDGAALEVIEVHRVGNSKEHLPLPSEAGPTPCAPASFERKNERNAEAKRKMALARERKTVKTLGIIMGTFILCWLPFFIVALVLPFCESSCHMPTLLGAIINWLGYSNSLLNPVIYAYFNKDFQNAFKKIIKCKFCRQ
Protocol: as §1

5-HT1B receptor = 5-HT1B receptor (Homo sapiens, UniProt P28222); assay: Membrane based GTPγS assay, agonist activity at 5-HT1B; format: biochemical; settings: 5-CT reference agonist, FIG. 5
Protocol: A membrane based GTPγS assay was conducted to monitor agonist activity of test compounds at the 5-HT1B receptor, summarized in FIG. 5. Test compounds were serially diluted to provide a wide concentration range sufficient to calculate EC50. The results are expressed as a percent of activation. 5-CT was used as a reference agonist.

[5] = FLIPR, FIG. 1, read-out: EC50, agonism of the 5-HT2B receptor

T2 sequence (P41595 whole entry): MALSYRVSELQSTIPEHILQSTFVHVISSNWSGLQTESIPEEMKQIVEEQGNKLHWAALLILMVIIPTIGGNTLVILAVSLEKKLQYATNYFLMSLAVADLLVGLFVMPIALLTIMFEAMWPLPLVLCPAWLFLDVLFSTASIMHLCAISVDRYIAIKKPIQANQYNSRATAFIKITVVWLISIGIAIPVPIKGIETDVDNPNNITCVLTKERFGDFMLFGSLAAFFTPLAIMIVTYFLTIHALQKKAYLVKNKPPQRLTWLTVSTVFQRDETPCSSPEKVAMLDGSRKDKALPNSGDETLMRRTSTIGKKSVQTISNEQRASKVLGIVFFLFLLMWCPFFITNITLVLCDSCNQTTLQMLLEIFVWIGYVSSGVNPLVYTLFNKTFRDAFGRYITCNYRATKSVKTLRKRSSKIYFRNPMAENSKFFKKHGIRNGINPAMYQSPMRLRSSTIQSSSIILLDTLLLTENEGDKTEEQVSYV
Sequence of 5-HT1B receptor (P28222 whole entry): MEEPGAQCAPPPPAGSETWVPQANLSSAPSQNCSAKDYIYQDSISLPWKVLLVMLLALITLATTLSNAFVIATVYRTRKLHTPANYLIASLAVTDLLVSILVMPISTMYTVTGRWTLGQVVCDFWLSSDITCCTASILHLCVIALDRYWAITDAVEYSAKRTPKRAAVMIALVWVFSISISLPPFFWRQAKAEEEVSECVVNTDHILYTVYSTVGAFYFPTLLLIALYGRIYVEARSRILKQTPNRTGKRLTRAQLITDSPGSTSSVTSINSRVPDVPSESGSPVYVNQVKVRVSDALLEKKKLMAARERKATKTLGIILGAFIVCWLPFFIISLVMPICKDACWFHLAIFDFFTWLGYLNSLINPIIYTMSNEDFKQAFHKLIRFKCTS
Sequence of 5-HT7 receptor (P34969 whole entry): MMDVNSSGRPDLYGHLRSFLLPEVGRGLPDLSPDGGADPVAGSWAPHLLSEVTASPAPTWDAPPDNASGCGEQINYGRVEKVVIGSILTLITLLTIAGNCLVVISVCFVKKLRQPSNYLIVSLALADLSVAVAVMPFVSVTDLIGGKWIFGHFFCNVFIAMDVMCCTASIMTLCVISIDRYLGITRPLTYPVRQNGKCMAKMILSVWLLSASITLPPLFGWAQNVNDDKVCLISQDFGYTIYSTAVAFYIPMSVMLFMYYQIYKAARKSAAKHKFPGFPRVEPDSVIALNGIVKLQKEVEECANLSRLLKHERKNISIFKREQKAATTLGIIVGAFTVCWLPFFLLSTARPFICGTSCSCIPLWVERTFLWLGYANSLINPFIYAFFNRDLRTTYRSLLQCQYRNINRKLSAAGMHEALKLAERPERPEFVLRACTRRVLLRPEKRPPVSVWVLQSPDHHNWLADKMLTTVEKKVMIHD
Sequence of 5-HT1D receptor (P28221 whole entry): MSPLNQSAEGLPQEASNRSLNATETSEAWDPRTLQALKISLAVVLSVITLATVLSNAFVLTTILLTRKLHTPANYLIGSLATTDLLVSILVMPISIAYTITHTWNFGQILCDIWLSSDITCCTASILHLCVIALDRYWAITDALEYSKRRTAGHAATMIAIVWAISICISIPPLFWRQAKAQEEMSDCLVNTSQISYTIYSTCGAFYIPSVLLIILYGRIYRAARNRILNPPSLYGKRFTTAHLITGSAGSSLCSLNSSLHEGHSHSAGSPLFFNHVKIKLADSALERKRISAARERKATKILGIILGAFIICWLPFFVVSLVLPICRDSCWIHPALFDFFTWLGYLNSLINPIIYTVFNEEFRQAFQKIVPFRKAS

Row | SMILES | agonist activity at the 5-HT2c receptor (5-HT2c receptor [1]) | EC50 (5-HT2B receptor [2]; [5]) [nM] | IC50 (5-HT2c receptor [3]) [nM] | EC50 (5-HT2B receptor [2]) [nM] | also measured
1 | CCCN1C[C@H](CSC)C[C@@H]2c3cccc4[nH]cc(c34)C[C@H]21 [pergolide] | no agonist activity | 10 | – | – | –
2 | CC(N)Cc1c[nH]c2ccc(O)cc12 (stereo not drawn) [alpha-Me-5HT] | – | 0.2 | – | – | –
3 | CNS(=O)(=O)Cc1ccc2[nH]cc(CCN(C)C)c2c1 [sumatriptan] | no agonist activity | – | – | – | antagonist activity at the 5-HT2c receptor (5-HT2c receptor [3]; FLIPR): no antagonist activity
4 | CN1C[C@H](C(=O)N[C@]2(C)O[C@@]3(O)[C@@H]4CCCN4C(=O)[C@H](Cc4ccccc4)N3C2=O)C[C@@H]2c3cccc4[nH]cc(c34)C[C@H]21 [dihydroergotamine] | no agonist activity | – | 280 | 260 | –
5 | CN1C[C@H](C(=O)N[C@]2(C)O[C@@]3(O)[C@@H]4CCCN4C(=O)[C@H](Cc4ccccc4)N3C2=O)C=C2c3cccc4[nH]cc(c34)C[C@H]21 [ergotamine] | – | – | – | 160 | EC50 (5-HT2c receptor [1]): 5000 nM
6 | CN1CC(C(=O)N[C@]2(C)O[C@@]3(O)C4CCCN4C(=O)[C@H](Cc4ccccc4)N3C2=O)CC2c3cccc4c3c(cn4C)CC21 (stereo partly shown) [MAP0057, 1-Methyl-Dihydroergotamine] | no agonist activity | – | 460 | – | IC50 (5-HT2B receptor [4]): 16 nM; EC50 (5-HT1D receptor): 0.45 nM; IC50 (5-HT7 receptor): 69 nM; EC50 (5-HT1A receptor): 16 nM; melting point: 216 to 218 °C; agonist activity at the 5-HT2B receptor (5-HT2B receptor [2]; FLIPR, dilution series starting with 10 μM, FIG. 1): no agonist activity; EC50 (5-HT1B receptor): 1.02 nM
